Experimental data taken from patent US20230416287A1, “Chemical Compounds” (GLAXOSMITHKLINE INTELLECTUAL PROPERTY DEVELOPMENT LIMITED, priority 2022, published 2023).
Values after ≈ are worked out from the molar mass of the structure shown.

Columns and labels:
[1] = CAD kinetic solubility; assay type: physicochemical; details: phosphate buffered saline (PBS), aqueous buffer, PBS pH 7.4, 1 hour equilibration at room temperature, from DMSO stock, HPLC-CAD
Experimental: Kinetic solubility was measured using Charged Aerosol Detector (CAD). The aqueous kinetic solubility at pH 7.4 was determined by measuring the concentration of solute in solution after precipitation from DMSO stock solution. The DMSO stock solution was diluted 20-fold with phosphate buffered saline (PBS) pH 7.4 and the solubility of the compound was measured after 1 hour equilibration at room temperature by HPLC-CAD.

[2] = target: human Nav1.8 (Homo sapiens, UniProt Q9Y5Y9); assay: Nav1.8 inhibitory activity, QPatch 48 HTX electrophysiology in HEK293-Nav1.8 cells; assay type: cell-based; set-up: expressed in transfected cells; host or cells: HEK293; details: half inactivation state voltage protocol (V1/2), HEK293 cells expressing human Nav1.8, read-out: [Nav1.8] pIC50 (converted)
Experimental: Biological Assay 1: Nav1.8 Inhibitory Activity Human embryonic kidney 293 cells (HEK293) expressing human Nav1.8, human Navol and human TREK1 (HEK293-Nav1.8) were grown in T150 cell culture flasks at 37° C., 5% CO2 incubator. HEK293-Nav1.8 were passaged every 2-3 days when confluency reached 80-90% in T150 cell culture flasks.
Pharmacological assessment of compounds of the invention was performed using the QPatch 48 HTX electrophysiological platform. HEK293-Nav1.8 cells were prepared on the day of use by removing culture media, washing in DPBS, adding Accutase (2 mL to cover the surface, aspirate 1 mL then 1-2 minutes at 37° C.) followed by addition of CHO-SFM II to stop the enzyme digestion and in order to obtain a suspension of 3×10^6 cell/mL.
Compounds of the invention were prepared in an extracellular solution of the following composition: NaCl (145 mM), KCl (4 mM), CaCl2) (2 mM), MgCl (2 mM), HEPES (1 mM), Glucose (10 mM), pH 7.4 with NaOH Osmolality 300 mOsM/L. An intracellular solution of the following composition was used: CsF (115 mM), CsCl (20 mm), NaCl (5 mM), EGTA (10 mM), HEPES (10 mM), Sucrose (20 mM), pH 7.2 with CsOH Osmolality 310 mOsm/L.
Utilizing the voltage-clamp mode in the QPatch 48 HTX system a half inactivation state voltage protocol (V1/2) was used to determine pharmacological activity of compounds of the invention at Nav1.8 ion channels. A V1/2 protocol was utilized with the following voltage steps: a holding voltage of −100 mV was established followed by a 20 ms voltage step to 0 mV (P1), followed by an inactivating voltage step at −46 mV for 8 seconds, followed by a step to −100 mV for 20 ms, before a 20 ms step to 0 mV (P2), then returned to the holding voltage of −100 mV. This voltage protocol was repeated at a frequency of every 15 seconds, the current magnitude was quantified at the P2 step throughout the recording. Inhibition of the measured current amplitude with compounds of the invention was analyzed by fitting a 4-6 points dose-response curve allowing determination of the fifty percent inhibition concentration (IC50). P2 currents were normalized according to measurements made at baseline (Baseline, vehicle only), after compound (Input, at each test concentration), and after positive reference compound (FullResponse, to achieve complete block), fit to the following equation: […]
To assess current run-down over the course of the experiment vehicle-only wells were utilized and the normalized current with vehicle-only (n. IVEH) was determined. To correct the compound response for run-down, the currents were corrected according to the following formula:
[formula] • Compound inhibition was fitted to the following Hill Equation to estimate the half maximal inhibition concentration (IC50)
[formula] • where Y is the normalized run-down corrected inhibition relative to the vehicle control (equivalent to n. IRD_Correct), C the test compound concentration, IC50 the concentration of test compound to inhibit the sodium current by 50%, and h the Hill coefficient.

[3] = Rat IV/PO pharmacokinetic study; assay type: in vivo, Han Wistar rats
Experimental: An in vivo rat pharmacokinetic study was conducted to determine whether prodrug compounds of the invention are converted to the respective parent compound upon administration. The rat pharmacokinetic study was conducted with a crossover design on two study days with a one-day recovery period between each study day. Three male, dual catheterized (femoral vein and carotid artery) Han Wistar rats were used for the study. Each rat was also implanted with a gastric catheter for oral dose administration. Rats were dosed at 1 mg/kg by a 60-minute intravenous (IV) infusion (femoral vein cannula), then subsequently oral dosed at 2 mg/kg via the gastric cannula, with 48 hours between dosing sessions. Dose solutions of the compound of Example 4 were prepared in 20% Cavitron/5% DMSO/75% water (IV) and in 6% Cavitron/5% DMSO/89% water (PO) without pH adjustment. The dose solutions were filtered using a 0.22 μm filter. The pH of the final dosing solutions was 6.0.
During the intravenous study leg, blood samples were collected from the carotid artery catheter at target times of 15, 30, 60 (end of infusion), 65, 75, 90, 120, 240, 360, 480, 720, and 1440 minutes following the initiation of the intravenous infusion of the compound of Example 4. During the oral study leg, blood samples were collected prior to dosing and at target times of 15, 30, 60, 90, 120, 180, 240, 360, 480, 720, and 1440 minutes following oral administration. Blood samples (100 μL) were mixed with 100 μL phosphatase inhibitor, a 50 μL aliquot of the blood and inhibitor mixture was transferred to a non-heparinized tube and stored at approximately −80° C. until analyzed. The concentrations in the filtered dose solutions were confirmed by preparing stepwise dilutions first into 50% aqueous acetonitrile with 0.10% formic acid then into heparinized male Wistar Han blood: inhibitor to achieve determined nominal concentrations. Triplicate 50 μL aliquots were removed and were frozen and stored at approximately […] until analyzed by LC-MS/MS as described below. LC-MS/MS was used to quantify the compound of Example 4 and the corresponding parent compound of Example 4A in the biological samples generated in the above described in vivo study.
Samples were prepared by protein precipitation followed by LC-MS/MS analysis employing positive-mode ionization against a set of calibration standards for the compounds prepared in the same matrix. Pharmacokinetic parameters for the study were derived from the concentration versus time profiles. Key pharmacokinetic parameters such as AUC0-∞. (extrapolated area under the blood concentration-time curve), AUC0-t (area under the blood concentration-time curve to the last time point with quantifiable drug), Cmax (maximum concentration), Tmax (time Cmax is achieved), CL (systemic blood clearance), Vdss (steady-state volume of distribution), MRT (mean residence time), and t1/2 (half-life) were determined for the compound of Example 4. The key pharmacokinetic parameters such as AUC0-∞, AUC0-t, Cmax, Tmax, MRT, and t1/2 (half-life) were determined for the parent compound Example 4A. Descriptive statistical data of pharmacokinetic parameters were calculated, including the mean and standard deviation (SD) using Microsoft Excel. The data are shown below in Tables 5A and 5B. Data are reported as mean±SD (N=3).

[4] = male, Han Wistar, prodrug Example 4 in blood, intravenous infusion of Example 4, 1 mg/kg, mean ± SD, N=3
[5] = male, Han Wistar, prodrug Example 4 in blood, intravenous infusion, 1 mg/kg, mean ± SD, N=3

Sequence of human Nav1.8 (Q9Y5Y9 whole entry): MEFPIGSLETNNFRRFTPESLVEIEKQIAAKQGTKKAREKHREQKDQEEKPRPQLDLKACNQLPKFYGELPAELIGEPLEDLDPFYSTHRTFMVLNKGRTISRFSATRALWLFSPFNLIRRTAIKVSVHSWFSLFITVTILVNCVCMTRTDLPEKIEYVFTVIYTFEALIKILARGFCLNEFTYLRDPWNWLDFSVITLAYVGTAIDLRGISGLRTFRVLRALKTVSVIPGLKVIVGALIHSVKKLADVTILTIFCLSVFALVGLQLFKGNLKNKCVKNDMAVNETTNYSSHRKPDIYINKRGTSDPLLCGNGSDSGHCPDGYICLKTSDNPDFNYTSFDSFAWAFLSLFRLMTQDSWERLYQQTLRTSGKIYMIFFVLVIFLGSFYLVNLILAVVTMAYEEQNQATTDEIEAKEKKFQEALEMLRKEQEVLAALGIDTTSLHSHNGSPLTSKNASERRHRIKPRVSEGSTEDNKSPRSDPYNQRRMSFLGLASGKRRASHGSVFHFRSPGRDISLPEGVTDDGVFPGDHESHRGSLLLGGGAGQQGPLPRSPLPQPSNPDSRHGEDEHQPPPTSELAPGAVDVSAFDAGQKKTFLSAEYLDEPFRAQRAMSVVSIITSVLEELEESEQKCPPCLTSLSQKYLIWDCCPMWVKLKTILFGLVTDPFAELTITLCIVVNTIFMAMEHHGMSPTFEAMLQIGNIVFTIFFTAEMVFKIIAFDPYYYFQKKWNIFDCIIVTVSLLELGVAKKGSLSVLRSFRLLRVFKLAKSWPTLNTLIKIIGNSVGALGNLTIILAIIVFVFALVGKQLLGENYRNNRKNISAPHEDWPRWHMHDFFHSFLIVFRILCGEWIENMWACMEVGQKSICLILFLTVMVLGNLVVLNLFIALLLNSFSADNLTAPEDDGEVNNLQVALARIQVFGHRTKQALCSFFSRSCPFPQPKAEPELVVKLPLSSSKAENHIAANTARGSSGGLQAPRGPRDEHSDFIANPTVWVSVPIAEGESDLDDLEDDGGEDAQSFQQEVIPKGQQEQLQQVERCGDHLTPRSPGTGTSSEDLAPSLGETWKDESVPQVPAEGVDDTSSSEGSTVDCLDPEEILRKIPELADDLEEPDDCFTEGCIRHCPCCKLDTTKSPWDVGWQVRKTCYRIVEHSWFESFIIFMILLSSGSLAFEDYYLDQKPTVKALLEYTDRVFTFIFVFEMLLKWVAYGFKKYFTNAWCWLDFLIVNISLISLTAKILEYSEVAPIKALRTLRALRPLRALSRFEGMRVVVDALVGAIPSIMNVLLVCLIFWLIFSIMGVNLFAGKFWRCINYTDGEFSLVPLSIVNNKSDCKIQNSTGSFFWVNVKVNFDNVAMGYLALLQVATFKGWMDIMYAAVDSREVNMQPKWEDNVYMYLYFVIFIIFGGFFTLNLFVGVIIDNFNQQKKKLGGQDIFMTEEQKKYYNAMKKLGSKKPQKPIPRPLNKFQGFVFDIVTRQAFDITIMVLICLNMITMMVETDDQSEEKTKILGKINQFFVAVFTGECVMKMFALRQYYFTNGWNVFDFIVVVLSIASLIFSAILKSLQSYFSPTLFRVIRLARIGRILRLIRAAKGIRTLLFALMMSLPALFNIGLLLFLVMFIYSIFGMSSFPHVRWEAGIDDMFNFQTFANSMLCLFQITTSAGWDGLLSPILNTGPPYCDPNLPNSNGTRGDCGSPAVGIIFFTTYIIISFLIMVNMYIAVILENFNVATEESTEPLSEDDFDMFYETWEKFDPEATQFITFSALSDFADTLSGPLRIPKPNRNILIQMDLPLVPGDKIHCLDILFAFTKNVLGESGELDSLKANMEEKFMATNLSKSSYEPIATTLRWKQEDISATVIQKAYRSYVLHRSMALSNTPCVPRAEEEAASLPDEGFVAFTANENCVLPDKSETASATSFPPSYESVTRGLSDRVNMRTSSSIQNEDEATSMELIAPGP

| Compound | solubility at 1 h [1] [µg/mL] | IC50 [2] [nM] | also measured |
| --- | --- | --- | --- |
| Cc1cc(F)ccc1N1CN(c2ccc(=O)[nH]c2C)C(=O)c2cc(C(F)(F)F)c(F)cc21 [Example 1A, 7-fluoro-1-(4-fluoro-2-methylphenyl)-3-(2-methyl-6-oxo-1,6-dihydropyridin-3-yl)-6-(trifluoromethyl)-2,3-dihydroquinazolin-4(1H)-one] | 32 (≈ 71.2 µM) | 10 |  |
| Cc1c(N2CN(c3ccc(=O)n(COP(=O)(O)O)c3C)C(=O)c3cc(F)c(Cl)cc32)ccc(F)c1F [Example 4, (5-(7-chloro-1-(3,4-difluoro-2-methylphenyl)-6-fluoro-4-oxo-1,4-dihydroquinazolin-3(2H)-yl)-6-methyl-2-oxopyridin-1(2H)-yl)methyl dihydrogen phosphate] | 157 | 31.6 | Vd ([3]; male, Han Wistar, blood, prodrug Example 4, intravenous infusion, 1 mg/kg, mean ± SD, N=3, read-out: Vdss): 0.687 ± 0.284 L/kg; Cmax ([3]; male, Han Wistar, prodrug Example 4 in blood, 60-minute intravenous infusion of Example 4, 1 mg/kg (Table 5A: 1.2 ± 0.1 mg/kg), mean ± SD, N=3): 238 ± 45 ng/mL; MRT [3, 4]: 6 ± 1.2 min; half-life [3, 4]: 40.2 ± 17.4 min; AUC(0-inf) [3, 5]: 197 ± 44 ng·h/mL; AUC(0-t) [3, 5]: 197 ± 284 ng·h/mL; clearance ([3]; male, Han Wistar, systemic blood clearance of prodrug Example 4, intravenous infusion, 1 mg/kg, mean ± SD, N=3): 110 ± 33 mL/min/kg; quantifiable concentrations following oral administration ([3]; prodrug Example 4 in blood, oral via gastric cannula, 2 mg/kg (Table 5A: 3.0 ± 0.0 mg/kg)): There were no |
| Cc1cc(F)ccc1N1CN(c2ccc(=O)n(COP(=O)(O)O)c2C)C(=O)c2cc(F)c(Cl)cc21 [Example 5, (5-(7-Chloro-6-fluoro-1-(4-fluoro-2-methylphenyl)-4-oxo-1,4-dihydroquinazolin-3(2H)-yl)-6-methyl-2-oxopyridin-1(2H)-yl)methyl dihydrogen phosphate] | 135 | 63.1 |  |
| Cc1c(N2CN(c3ccc(=O)n(COP(=O)(O)O)c3C)C(=O)c3cc(C(F)(F)F)ncc32)ccc(F)c1F [Example 3, (5-(1-(3,4-Difluoro-2-methylphenyl)-4-oxo-6-(trifluoromethyl)-1,4-dihydropyrido[3,4-d]pyrimidin-3(2H)-yl)-6-methyl-2-oxopyridin-1(2H)-yl)methyl dihydrogen phosphate] | 224 | 1260 |  |
| Cc1cc(F)ccc1N1CN(c2ccc(=O)n(COP(=O)(O)O)c2C)C(=O)c2cc(C(F)(F)F)c(F)cc21 [Example 1, (5-(7-fluoro-1-(4-fluoro-2-methylphenyl)-4-oxo-6-(trifluoromethyl)-1,4-dihydroquinazolin-3(2H)-yl)-6-methyl-2-oxopyridin-1(2H)-yl)methyl dihydrogen phosphate] | ≥ 192 | 31.6 |  |
| Cc1cc(OC(F)(F)F)ccc1N1CN(c2cc(C)c(=O)n(COP(=O)(O)O)c2C)C(=O)c2cc(C(F)(F)F)cnc21 [Example 2, (3,6-dimethyl-5-(1-(2-methyl-4-(trifluoromethoxy)phenyl)-4-oxo-6-(trifluoromethyl)-1,4-dihydropyrido[2,3-d]pyrimidin-3(2H)-yl)-2-oxopyridin-1(2H)-yl)methyl dihydrogen phosphate] | ≥ 217 | 501 |  |

Further lines, with some results ahead:

| solubility at 1 h [1] [µg/mL] | IC50 [2] [nM] | Compound | also measured |
| --- | --- | --- | --- |
| 56 (≈ 109 µM) | 20 | Cc1cc(OC(F)(F)F)ccc1N1CN(c2cc(C)c(=O)[nH]c2C)C(=O)c2cc(C(F)(F)F)cnc21 [Example 2A, 3-(2,5-dimethyl-6-oxo-1,6-dihydropyridin-3-yl)-1-(2-methyl-4-(trifluoromethoxy)phenyl)-6-(trifluoromethyl)-2,3-dihydropyrido[2,3-d]pyrimidin-4(1H)-one] |  |
| ≥ 210 | 100 | Cc1[nH]c(=O)ccc1N1CN(c2ccc(F)c(F)c2C)c2cnc(C(F)(F)F)cc2C1=O [Example 3A, 1-(3,4-difluoro-2-methylphenyl)-3-(2-methyl-6-oxo-1,6-dihydropyridin-3-yl)-6-(trifluoromethyl)-2,3-dihydropyrido[3,4-d]pyrimidin-4(1H)-one] |  |
